In the CheMixHub viscosity set:
Several values for one entry are separate records, joined by “and”; a condition that tells them apart may be missing. Equal entries are not always repeated.

Columns and labels:
[1] = xn = mol fraction of the nth substance listed; settings: 101 kPa

C1CCCCCCC1
101 kPa
Settings | viscosity
298.15 K | 2.25 mPa·s
303 K | 2.007 mPa·s
303.15 K | 2.031 mPa·s
308.15 K | 1.818 mPa·s (2×) and 1.818 mPa·s
313.15 K | 1.649 mPa·s and 1.692 mPa·s

CC(=O)CC(C)(C)O
Settings | viscosity [mPa·s]
298.15 K, 101 kPa | 2.902

CC(=O)O.NCCO
viscosity
Settings | 293.15 K | 298.15 K | 303.15 K | 308.15 K | 313.15 K | 318.15 K | 323.15 K
101 kPa | 5032 mPa·s | 3167 mPa·s | 2044 mPa·s | 1369 mPa·s | 947.7 mPa·s | 661 mPa·s | 477.5 mPa·s
101.3 kPa | 3423 mPa·s | 2300 mPa·s and 2300 mPa·s and 2267 mPa·s | 1502 mPa·s | 1021 mPa·s | 711.1 mPa·s | 506.5 mPa·s | 368.3 mPa·s

CC(C)=CC(=O)C=C(C)C
Settings | viscosity [mPa·s]
298.15 K, 101 kPa | 1.394

CC(C)CC(C)O (stereo unspecified)
Settings | viscosity
298.15 K, 101.33 kPa | 3.823 mPa·s and 3.823 mPa·s

CC/C=C\CCO
100 kPa
Settings | viscosity [mPa·s]
293.15 K | 3.336
298.15 K | 2.921
303.15 K | 2.566
308.15 K | 2.266
313.15 K | 2.012
318.15 K | 1.807

CC1(C)OCC(CO)O1 (stereo unspecified)
101 kPa
Settings | viscosity [mPa·s]
298.15 K | 9.643
308.15 K | 6.834
318.15 K | 5.076

CCCCC
viscosity
Settings | 100 kPa | 101 kPa | 101.33 kPa
293.15 K | 0.222 mPa·s | – | –
298.15 K | 0.212 mPa·s | 0.2121 mPa·s and 0.214 mPa·s | 0.223 mPa·s and 0.223 mPa·s and 0.237 mPa·s

CCCCC(=O)OCC
101.33 kPa
Settings | viscosity [mPa·s]
293.15 K | 0.846
303.15 K | 0.694
313.15 K | 0.629

CCCCCCCCCC
viscosity
Settings | 293.15 K | 298.15 K | 303.15 K | 308.15 K | 313.15 K | 318.15 K | 323.15 K
100 kPa | 0.928 mPa·s and 0.918 mPa·s | 0.853 mPa·s and 0.874 mPa·s | 0.807 mPa·s and 0.795 mPa·s (2×) and 0.791 mPa·s | 0.745 mPa·s and 0.744 mPa·s | 0.691 mPa·s and 0.7 mPa·s (2×) and 0.699 mPa·s | 0.66 mPa·s and 0.659 mPa·s | 0.624 mPa·s
101 kPa | – | – | 0.802 mPa·s and 0.803 mPa·s | – | 0.6883 mPa·s | 0.66 mPa·s and 0.6182 mPa·s and 0.6466 mPa·s | 0.6085 mPa·s
101.32 kPa | 0.91 mPa·s | – | 0.785 mPa·s | – | – | – | –
101.33 kPa | 0.91 mPa·s | – | 0.774 mPa·s and 0.793 mPa·s and 0.755 mPa·s | – | 0.673 mPa·s | 0.619 mPa·s | –
103 kPa | – | 0.842 mPa·s | – | 0.727 mPa·s | – | 0.64 mPa·s | –

CCCCCCCO
viscosity
Settings | 100 kPa | 101 kPa | 101.3 kPa | 101.33 kPa
293.15 K | 7.018 mPa·s | – | 7.079 mPa·s | –
298 K | 5.956 mPa·s | – | – | –
298.15 K | – | – | 5.758 mPa·s | 5.69 mPa·s and 5.652 mPa·s
303 K | 4.778 mPa·s | – | – | –
303.15 K | 5.014 mPa·s | 4.996 mPa·s and 4.783 mPa·s | 4.814 mPa·s and 4.785 mPa·s | –
308.15 K | 4.275 mPa·s | 4.176 mPa·s and 4.691 mPa·s and 4.069 mPa·s | 4.2 mPa·s and 4.051 mPa·s and 4.691 mPa·s | 4.002 mPa·s and 4.045 mPa·s and 4.175 mPa·s
313 K | 3.228 mPa·s | 3.55 mPa·s | – | –
313.15 K | 3.656 mPa·s and 3.702 mPa·s and 3.735 mPa·s | 3.723 mPa·s and 4.598 mPa·s | 3.579 mPa·s | –
318.15 K | 3.407 mPa·s | – | 3.447 mPa·s | –
323 K | 2.529 mPa·s | – | – | –
323.15 K | 2.741 mPa·s and 2.8 mPa·s | – | – | 2.741 mPa·s and 2.741 mPa·s

CCCCCCn1cc[n+](C)c1.O=S(=O)([N-]S(=O)(=O)C(F)(F)F)C(F)(F)F
viscosity
Settings | 293.15 K | 298.15 K | 303.15 K | 308.15 K | 313.15 K | 318.15 K | 323.15 K
100 kPa | 89 mPa·s and 85.15 mPa·s | 65.94 mPa·s | 51.91 mPa·s | 41.36 mPa·s | 33.79 mPa·s | – | –
101 kPa | – | – | 58.3 mPa·s | 50.4 mPa·s | 41.4 mPa·s | 35 mPa·s | 28.8 mPa·s

CCCCN(CCC#N)CCCC
Settings | viscosity [mPa·s]
303.15 K, 100 kPa | 2.5

CCN(CC)CCO
viscosity
Settings | 298.15 K | 303.15 K | 313.15 K | 323.15 K
101.3 kPa | – | 3.308 mPa·s | 2.414 mPa·s | 1.466 mPa·s
101.33 kPa | 4.022 mPa·s and 4.01 mPa·s | 3.308 mPa·s | 2.414 mPa·s | –

CCN(CC)S(C)(=O)=O
Settings | viscosity [mPa·s]
303.15 K, 101.33 kPa | 40590

COP(=O)([O-])OC.C[N+]1(CCO)CCCC1
100 kPa
Settings | viscosity [mPa·s]
293.15 K | 1452
298.15 K | 980.6
303.15 K | 687.4
308.15 K | 496.1
313.15 K | 366
318.15 K | 272.8
323.15 K | 210.2

CS(C)=O
Settings | viscosity
293.15 K, 100 kPa | 2.11 mPa·s and 2.23 mPa·s and 2.239 mPa·s
298 K, 101.3 kPa | 2.024 mPa·s
298.15 K, 101 kPa | 1.79 mPa·s
298.15 K, 101.3 kPa | 1.944 mPa·s and 1.926 mPa·s
298.15 K, 101.33 kPa | 1.848 mPa·s
299 K, 101 kPa | 3.143 mPa·s
302.4 K, 101 kPa | 3.676 mPa·s
303.15 K, 100 kPa | 1.79 mPa·s
303.15 K, 101.3 kPa | 1.788 mPa·s and 1.788 mPa·s (2×) and 1.788 mPa·s
308.15 K, 100 kPa | 1.63 mPa·s
308.15 K, 101.33 kPa | 1.498 mPa·s
313.15 K, 100 kPa | 1.5 mPa·s
313.15 K, 101.33 kPa | 1.449 mPa·s and 1.619 mPa·s
318.15 K, 101.3 kPa | 1.31 mPa·s and 1.31 mPa·s
318.15 K, 101.33 kPa | 1.317 mPa·s
323.15 K, 101.3 kPa | 1.284 mPa·s
323.15 K, 101.33 kPa | 1.221 mPa·s and 1.433 mPa·s

C[N+](C)(C)CCC[n+]1ccccc1.N#C[N-]C#N.N#C[N-]C#N
100 kPa
Settings | viscosity
293.15 K | 2191 mPa·s and 2191 mPa·s
298.15 K | 1306 mPa·s
303.15 K | 830.8 mPa·s and 830.8 mPa·s
308.15 K | 557.7 mPa·s
313.15 K | 386 mPa·s and 386 mPa·s
318.15 K | 280.7 mPa·s
323.15 K | 210.2 mPa·s and 210.2 mPa·s

OC1CCCCC1
viscosity
Settings | 293.15 K | 298.15 K | 303.15 K | 308 K | 308.15 K | 313.15 K | 318.15 K | 318.16 K | 323.15 K
100 kPa | 83.29 mPa·s | 58.97 mPa·s | 43.42 mPa·s | – | 33.66 mPa·s and 32.39 mPa·s | 25.52 mPa·s and 25.85 mPa·s | 20.14 mPa·s | 19.5 mPa·s | –
101 kPa | – | – | 23.6 mPa·s and 39.55 mPa·s | 27.95 mPa·s | 27.95 mPa·s | – | – | – | 8.89 mPa·s

CC1(C)OCC(CO)O1 (stereo unspecified) + OCC(O)CO
viscosity [mPa·s], [1]
Settings | x1 = 0.1 | x1 = 0.2015 | x1 = 0.3 | x1 = 0.4012 | x1 = 0.499 | x1 = 0.6002 | x1 = 0.7 | x1 = 0.801 | x1 = 0.9003
298.15 K | 803.5 | 702.6 | 600.8 | 502.2 | 407.7 | 319.4 | 243.3 | 163.1 | 84.15
308.15 K | 356.9 | 310 | 262 | 212.8 | 167.1 | 129.5 | 97.75 | 69.56 | 35.83
318.15 K | 175.4 | 150 | 123.5 | 98.86 | 75.9 | 54.95 | 43.91 | 31.63 | 16.65

CCOC(=O)C(C)O (stereo unspecified) + OCCCO
[1]
Settings | viscosity [mPa·s]
298.15 K, x1 = 0.4996 | 9.585
303.15 K, x1 = 0.3 | 14.35
303.15 K, x1 = 0.8 | 3.405
313.15 K, x1 = 0.3998 | 7.365
318.15 K, x1 = 0.3 | 8.235
323.15 K, x1 = 0.5997 | 3.235

CC1(C)OCC(CO)O1 (stereo unspecified) + OCCO
viscosity [mPa·s], [1]
Settings | x1 = 0.0997 | x1 = 0.2 | x1 = 0.3008 | x1 = 0.3988 | x1 = 0.5014 | x1 = 0.6 | x1 = 0.7003 | x1 = 0.8 | x1 = 0.8997
298.15 K | 15.54 | 14.27 | 12.57 | 11.4 | 10.31 | 9.722 | 9.762 | 9.801 | 9.695
308.15 K | 10.5 | 9.645 | 8.569 | 7.712 | 6.932 | 6.525 | 6.516 | 6.912 | 6.889
318.15 K | 7.537 | 6.894 | 6.139 | 5.409 | 4.898 | 4.639 | 4.882 | 5.057 | 5.085
